{"source": "patent US20190030170A1", "about": "“CANNABINOID FORMULATIONS WITH IMPROVED SOLUBILITY” (Vireo Health LLC, priority 2016, published 2019)", "assay": "solubility of CBD in water and other aqueous solvents with Captisol (SAE-CD) and/or added polymers, surfactants, pH", "format": "physicochemical", "source_text": "In some embodiments the addition of water soluble polymers and/or surfactants increases the solubility of the CBD/Captisol mixture. Therefore, in some embodiments the formulations may include the addition of these or other ingredients as solubility enhancers.", "data": [{"smiles": "C=C(C)[C@@H]1CCC(C)=C[C@H]1c1c(O)cc(CCCCC)cc1O", "note": "[CBD, cannabidiol]", "values": [{"measurement": "solubility", "setting": "aqueous solvent with 0.5% Poloxamer 188, without Captisol, aqueous with cosolvent or surfactant or cyclodextrin, Captisol 0%, 0.5% Poloxamer 188", "result": 0.133, "unit": "mg/mL"}, {"measurement": "solubility", "setting": "aqueous solvent, aqueous with cosolvent or surfactant or cyclodextrin, Captisol 0%, 1% CMC", "result": 0.593, "unit": "mg/mL"}, {"measurement": "solubility", "setting": "aqueous solvent, aqueous with cosolvent or surfactant or cyclodextrin, Captisol 0%, 1% CrEL", "result": 8.96, "unit": "mg/mL"}, {"measurement": "solubility", "setting": "aqueous solvent, aqueous with cosolvent or surfactant or cyclodextrin, Captisol 0%, 1% HPMC", "result": 0.59, "unit": "mg/mL"}, {"measurement": "solubility", "setting": "aqueous solvent, aqueous with cosolvent or surfactant or cyclodextrin, Captisol 0%, 1% PVP", "result": 0.603, "unit": "mg/mL"}, {"measurement": "solubility", "setting": "aqueous solvent, aqueous with cosolvent or surfactant or cyclodextrin, Captisol 0%, 1% Tween 80", "result": 4.2, "unit": "mg/mL"}, {"measurement": "solubility", "setting": "aqueous solvent, aqueous with cosolvent or surfactant or cyclodextrin, Captisol 0%, 5% CrEL", "result": 21.9, "unit": "mg/mL"}, {"measurement": "solubility", "setting": "aqueous solvent, aqueous with cosolvent or surfactant or cyclodextrin, Captisol 0%, 10% CrEL", "result": 47.9, "unit": "mg/mL"}, {"measurement": "solubility", "setting": "aqueous solvent, aqueous with cosolvent or surfactant or cyclodextrin, Captisol 20%, 0.5% CMC", "result": 0.0145, "unit": "mg/mL"}, {"measurement": "solubility", "setting": "aqueous solvent, aqueous with cosolvent or surfactant or cyclodextrin, Captisol 20%, 0.5% HPMC", "result": 1.32, "unit": "mg/mL"}, {"measurement": "solubility", "setting": "aqueous solvent, aqueous with cosolvent or surfactant or cyclodextrin, Captisol 20%, 0.5% PVP", "result": 1.18, "unit": "mg/mL"}, {"measurement": "solubility", "setting": "aqueous solvent, aqueous with cosolvent or surfactant or cyclodextrin, Captisol 20%, 0.5% Poloxamer 188", "result": 1.41, "unit": "mg/mL"}, {"measurement": "solubility", "setting": "aqueous solvent, aqueous with cosolvent or surfactant or cyclodextrin, Captisol 20%, 1% CMC", "result": 1.71, "unit": "mg/mL"}, {"measurement": "solubility", "setting": "aqueous solvent, aqueous with cosolvent or surfactant or cyclodextrin, Captisol 20%, 1% CrEL", "result": 4.28, "unit": "mg/mL"}, {"measurement": "solubility", "setting": "aqueous solvent, aqueous with cosolvent or surfactant or cyclodextrin, Captisol 20%, 1% HPMC", "result": 1.55, "unit": "mg/mL"}, {"measurement": "solubility", "setting": "aqueous solvent, aqueous with cosolvent or surfactant or cyclodextrin, Captisol 20%, 1% PVP", "result": 1.52, "unit": "mg/mL"}, {"measurement": "solubility", "setting": "aqueous solvent, aqueous with cosolvent or surfactant or cyclodextrin, Captisol 20%, 1% Tween 80", "result": 2.01, "unit": "mg/mL"}, {"measurement": "solubility", "setting": "aqueous solvent, aqueous with cosolvent or surfactant or cyclodextrin, Captisol 20%, 2% CMC", "result": 0.365, "unit": "mg/mL"}, {"measurement": "solubility", "setting": "aqueous solvent, aqueous with cosolvent or surfactant or cyclodextrin, Captisol 20%, 2% PVP", "result": 0.84, "unit": "mg/mL"}, {"measurement": "solubility", "setting": "aqueous solvent, aqueous with cosolvent or surfactant or cyclodextrin, Captisol 20%, 2% Tween 80", "result": 0.72, "unit": "mg/mL"}, {"measurement": "solubility", "setting": "aqueous solvent, aqueous with cosolvent or surfactant or cyclodextrin, Captisol 20%, 5% CrEL", "result": 13.5, "unit": "mg/mL"}, {"measurement": "solubility", "setting": "aqueous solvent, aqueous with cosolvent or surfactant or cyclodextrin, Captisol 20%, 5% CrEL and EtOH", "result": 21.5, "unit": "mg/mL"}, {"measurement": "solubility", "setting": "aqueous solvent, aqueous with cosolvent or surfactant or cyclodextrin, Captisol 20%, 10% CrEL", "result": 46.7, "unit": "mg/mL"}, {"measurement": "solubility", "setting": "aqueous solvent, aqueous with cosolvent or surfactant or cyclodextrin, Captisol 20%, EtOH (line below the 10% heading)", "result": 0.92, "unit": "mg/mL"}, {"measurement": "solubility", "setting": "aqueous solvent, aqueous with cosolvent or surfactant or cyclodextrin, Captisol 20%, additive None", "result": 0.85, "unit": "mg/mL"}, {"measurement": "solubility", "setting": "aqueous solvent, aqueous with cosolvent or surfactant or cyclodextrin, Captisol 40%, 0.5% CMC", "result": 3.27, "unit": "mg/mL"}, {"measurement": "solubility", "setting": "aqueous solvent, aqueous with cosolvent or surfactant or cyclodextrin, Captisol 40%, 0.5% HPMC", "result": 2.68, "unit": "mg/mL"}, {"measurement": "solubility", "setting": "aqueous solvent, aqueous with cosolvent or surfactant or cyclodextrin, Captisol 40%, 0.5% PVP", "result": 2.95, "unit": "mg/mL"}, {"measurement": "solubility", "setting": "aqueous solvent, aqueous with cosolvent or surfactant or cyclodextrin, Captisol 40%, 0.5% Tween 80", "result": 2.02, "unit": "mg/mL"}, {"measurement": "solubility", "setting": "aqueous solvent, aqueous with cosolvent or surfactant or cyclodextrin, Captisol 40%, 1% CMC", "result": 2.64, "unit": "mg/mL"}, {"measurement": "solubility", "setting": "aqueous solvent, aqueous with cosolvent or surfactant or cyclodextrin, Captisol 40%, 1% HPMC", "result": 3.45, "unit": "mg/mL"}, {"measurement": "solubility", "setting": "aqueous solvent, aqueous with cosolvent or surfactant or cyclodextrin, Captisol 40%, 1% PVP", "result": 3.28, "unit": "mg/mL"}, {"measurement": "solubility", "setting": "aqueous solvent, aqueous with cosolvent or surfactant or cyclodextrin, Captisol 40%, 1% Tween 80", "result": 2.65, "unit": "mg/mL"}, {"measurement": "solubility", "setting": "aqueous solvent, aqueous with cosolvent or surfactant or cyclodextrin, Captisol 40%, additive None", "result": 2.8, "unit": "mg/mL"}, {"measurement": "solubility", "setting": "aqueous solvent, aqueous with cosolvent or surfactant or cyclodextrin, Captisol 0%, 5% CrEL and EtOH", "result": 36.2, "unit": "mg/mL"}, {"measurement": "solubility", "setting": "aqueous solvent, pH 2, aqueous with cosolvent or surfactant or cyclodextrin, Captisol 20%, pH ~2", "result": 2.48, "unit": "mg/mL"}, {"measurement": "solubility", "setting": "aqueous solvent, pH 4, aqueous with cosolvent or surfactant or cyclodextrin, Captisol 20%, pH 4", "result": 0.65, "unit": "mg/mL"}, {"measurement": "solubility", "setting": "aqueous solvent, pH 7.4, aqueous with cosolvent or surfactant or cyclodextrin, Captisol 20%, PBS (pH = 7.4)", "result": 0.72, "unit": "mg/mL"}, {"measurement": "solubility", "setting": "aqueous solvent, pH 7.4, aqueous with cosolvent or surfactant or cyclodextrin, Captisol 40%, PBS (pH = 7.4)", "result": 2.3, "unit": "mg/mL"}, {"measurement": "solubility", "setting": "aqueous solvent, pH 9, aqueous with cosolvent or surfactant or cyclodextrin, Captisol 20%, pH 9", "result": 0.85, "unit": "mg/mL"}, {"measurement": "solubility", "setting": "aqueous solvent, water, Captisol 0%, additive None", "result": 0.00026, "unit": "mg/mL"}, {"measurement": "effect of complexation with Captisol on solubility of CBD in water and other aqueous solvents", "setting": "complexation with an SAE-CD (Captisol)", "result": "significantly increased"}]}]}
